# Tested on: HMCLs
# Assay: HMCLs response to drug treatment (IC50 at day 4, CellTiter-Glo assay)
# Assay type: cell-based, human
# Details: classification from IC50 at day 4
# Description: HMCLs were cultured in RPMI-1640 medium (Gibco, Thermo Fisher Scientific, Waltham, USA) supplemented with 10% fetal bovine serum (Eurobio, Les Ulis, France) and IL-6 (Peprotech, Rocky Hill, USA) for XG cell lines. The inventorsevaluated the sensitivity of HMCLs to lenalidomide and romidepsin (Selleckchem, Houston, USA). The IC50 was determined at day 4 using the CellTiter-Glo assay (Promega, Madison, USA), as previously described. The data represent the mean ± standard deviation of three independent experiments that were carried out on sextuplet culture wells (Figure 6A and 7A).
compound,measurement,setting,value
Nc1cccc2c1CN(C1CCC(=O)NC1=O)C2=O (centres unmarked) [lenalidomide],sensitivity of HMCLs to lenalidomide,"AMO1, JJN3, KMS-12-BM, SKMM2, XG1, XG5, XG7, XG12, XG20 and XG21 HMCLs",resistant
same,sensitivity of HMCLs to lenalidomide,"OPM2, RPMI8226, XG2, XG6, XG13 and XG19 HMCLs",sensitive

# Reference: patent EP3995830A1, “METHOD OF PROGNOSIS OF AN INDIVIDUAL HAVING MULTIPLE MYELOMA TO BE SENSITIVE TO A TREATMENT” (Centre national de la recherche scientifique, priority 2020, dated 2022)
